The values that follow come from patent publication US7628996B2, “Sterile immunogenic non-tumorigenic tumor cell compositions and methods” (priority 2002, dated 2009).

One series concerns Bacteriodes vulgatus. Description: Short exposure of test microorganism to antibiotic. The series is classed as cell-based. Here is the method: (§1) Appropriate test microorganisms were incubated with the antibiotic for varying periods of time and at 4° C. or 37° C. “Untreated” controls were incubated with HBSS. After completion of the treatment, the samples were assayed for bioburden by the membrane filtration method on Tryptic Soy agar containing 5% sheep blood (TSA-SB) and Sabouraud's dextrose medium (SAB).
Anaerobes are the predominant microorganisms in the colon. […] Lincomycin (Lincocin hydrochloride) (Sigma-Aldrich Co.) and Primaxin® were then tested against this anaerobe.

Another series concerns Pseudomonas aeruginosa. Description: Short exposure of test microorganism to antibiotic. The series is classed as cell-based. The conditions noted are these: 12.5 to 50 μg/mL, one hour at 37° C. Here is the method: as §1
(§2) Two members of the quinolone class of antibiotics norfloxacin (Noroxin® (Merck & Co., Inc.)) and levofloxacin (Levaquin® (Ortho-McNeil)) also were evaluated. In preliminary experiments, norfloxacin was tested against Enterococcus faecalis and Pseudomonas aeruginosa.

Another series deals with Enterococcus faecalis. Description: Short exposure of test microorganism to antibiotic. The conditions noted are these: 12.5 to 50 μg/mL, one hour at 37° C. The format is cell-based. On the procedure:
as §1, §2

A further series has as its system Candida albicans. Description: Short exposure of test microorganism to anti-mycotic. The format is cell-based. On the procedure:
as §1
Amphotericin B was selected for action on yeasts and mold.

The subject of series [1] is bioburden of colon tumors. Description: Disinfection of trimmed colon tumor pieces before dissociation: bioburden of tumor cell suspension. The format is cell-based. The conditions noted are these: for effect of disinfectant on bioburden (in words): treatment of trimmed tumor pieces, concentrations tested; for Bioburden SAB-CM Aerobic / Bioburden TSA-SB Aerobic / Bioburden TSA-SB Anaerobic: per patient tumor sample. The text has this:
(§3) For pathological staging purposes, the pathologist cuts the tumor to determine the deepest margin of penetration. Consequently, the excised tumors are comprised of several pieces of tumor tissue. The tissue was dissected to remove extraneous non-tumor and necrotic tissue. The trimmed tumor pieces were further subdivided to achieve homogeneity and divided into two to four groups for processing according to the experimental design. The tissue was divided as evenly as possible among the samples, taking care to make the tumor pieces in the experimental groups appear as identical as possible. The trimmed pieces were added to a tube containing 40 mL of disinfectant and then treated by shaking for 2 minutes at 200 rpm on a rotating platform shaker. The trimmed tumor pieces were then washed three times with HBSS and then dissociated. The amount of tumor dissociated was determined by weighing the tumor fragments prior to dissociation and after completion of the dissociation cycles. After dissociation, the tumor cell suspension was sampled for percent tumor cell viability, number of viable tumor cells, tumor cell potency and bioburden. The yield was defined as the number of viable tumor cells obtained per gram of tumor that was actually dissociated. The bioburden was normalized to CFU/10^7 viable tumor cells, approximately one dose of product.
(§4) Tumor sample 500-0051-KNO was washed with saline, a second wash with 1% Triton X-100 and followed by three additional saline washes (see Example 1). The resultant bioburden was below the limit of detection of the assay. In order to evaluate the ability of a disinfectant to remove bioburden, one to two logs of bioburden must be detectable in the control sample. In order to maximize the possible bioburden in the tumors and present a greater challenge to the disinfectant, the following modifications to the procedure were made: the tumors were minimally washed (one 500 mL quantity) prior to pathological dissection; the dissociations were performed in the absence of gentamicin.

A further series deals with colon tumor cells. Description: Disinfection of trimmed colon tumor pieces before dissociation: tumor cell viability, yield, potency. The conditions noted are these: treatment of trimmed tumor pieces, relative to control. The series is classed as cell-based, human.
Excerpt: as §3, with “The trimmed tumor pieces were then washed three times with HBSS and then dissociated.” left out, “After dissociation, the tumor cell suspension was sampled for percent tumor cell viability, number of viable tumor cells, tumor cell potency and bioburden. The yield was defined as the number of viable tumor cells obtained per gram of tumor that was actually dissociated. The bioburden was normalized to CFU/10^7 viable tumor cells, approximately one dose of product.” left out
Tumor sample 500-0051-KNO was washed with saline, a second wash with 1% Triton X-100 and followed by three additional saline washes (see Example 1). […] In order to maximize the possible bioburden in the tumors and present a greater challenge to the disinfectant, the following modifications to the procedure were made: the tumors were minimally washed (one 500 mL quantity) prior to pathological dissection; the dissociations were performed in the absence of gentamicin.

Series [2] relates to endogenous bioburden present in colon tumors. Description: Additional one hour incubation with antibiotics after enzymatic dissociation: bioburden. The series is classed as cell-based. The conditions noted are these: additional incubation vs no incubation; per tumor. On the procedure: as §1
For the first four tumors processed, a portion of the cell suspension dissociated in the presence of gentamicin or gentamicin with other antibiotics was also incubated for an additional hour (after completion of the dissociation) with the same antibiotic(s). This additional incubation was evaluated for increased reduction of bioburden.

The subject of another series is microbial growth. Description: Disinfection of trimmed colon tumor pieces before dissociation: sterility in TSB and FTG broth. The format is cell-based. More on the design: key: Pass (P) (no evidence of microbial growth); Fail (F) (Microbial growth). The conditions noted are these: per patient tumor sample.
Excerpt: as §3, §4

The mark [3] stands for this setting: 0.4% Clorpactin, 2 successive 2 min treatments.
The mark [4] stands for this setting: 0.4% Clorpactin, one 2 min treatment.

Values joined by “and” are separate entries in the source; they are usually repeats but may differ in a detail not shown here. Identical values can stand only once. “Also recorded” adds a separate entry of the source.

Consider `Cc1ncc([N+](=O)[O-])n1CCO` [Flagyl], for which the “effectiveness against the anaerobe (in words)” value in the series with Bacteriodes vulgatus (2.5 and 5 μg/mL, aerobic incubation conditions) was “ineffectual”.

For `CCn1cc(C(=O)O)c(=O)c2cc(F)c(N3CCNCC3)cc21` [Norfloxacin, norfloxacin], the “effectiveness (in words)” value is given as “highly effective” in the series on Pseudomonas aeruginosa and “ineffectual” with Enterococcus faecalis.

For the molecule `C[C@@H]1[C@H](O)[C@@H](C)/C=C/C=C/C=C/C=C/C=C/C=C/C=C/[C@H](O[C@@H]2O[C@H](C)[C@@H](O)[C@H](N)[C@@H]2O)C[C@@H]2O[C@](O)(C[C@@H](O)C[C@@H](O)[C@H](O)CC[C@@H](O)C[C@@H](O)CC(=O)O[C@H]1C)C[C@H](O)[C@H]2C(=O)O` [amphotericin B], the “reduction in colonies (in words)” value in the series on Candida albicans (0.5 to 1.0 μg/mL, observed one day after treatment) was “Marked reduction in colonies”. The “inhibition (in words)” value with Candida albicans (observed after 8 days in culture, higher concentration) was “only slight inhibition”.

As to `CCC[C@@H]1C[C@@H](C(=O)N[C@@H]([C@H]2O[C@H](SC)[C@H](O)[C@@H](O)[C@H]2O)[C@@H](C)O)N(C)C1` [lincomycin, Lincomycin], the “reduction of the anaerobe” value was “one log reduction” in the series with Bacteriodes vulgatus (extended conditions: 40 minutes at 37° C., 4° C. for 60 minutes, additional 60 minutes at 37° C.) and “no effect” with Bacteriodes vulgatus (overnight at 4° C., Primaxin 100 μg/mL, lincomycin up to 150 μg/mL).

Take `OCl` [sodium hypochlorite]: the “effect of disinfectant on bioburden (in words)” value in series [1] was “effective in reducing the bioburden”. Moreover, the “effect of disinfectant on tumor cell yield (in words)” value with colon tumor cells is listed as “significantly reduced the tumor cell yield relative to the control”.

As for gentamicin, in series [2], the “Percent Reduction of Bioburden, SAB medium” value stood at 80% and the “Percent Reduction of Bioburden, TSA medium” value stood at 41%.

With sodium oxychlorosene [Clorpactin ®], the “Sterility FTG” value in the series on microbial growth (setting [3]) was “F and P”; in the series with microbial growth (setting [4]) it was “F (3×) and P (3×)”; in the series with microbial growth (0.8% Clorpactin, 2 min), “F”. For the same molecule, the “Sterility TSB” value is “F” in the series on microbial growth (setting [3]); “F (4×) and P (2×)” in the series on microbial growth (setting [4]); “F” with microbial growth (0.8% Clorpactin, 2 min). The “Bioburden SAB-CM Aerobic” value in series [1] (setting [3]) was “≦2 CFU/107 Cells”; in series [1] (setting [4]), 207 CFU/107 Cells and ≦11 CFU/107 Cells and ≦23 CFU/107 Cells and ≦2 CFU/107 Cells (2×) and <49 CFU/107 Cells; in series [1] (0.8% Clorpactin, 2 min) it was 4452 CFU/107 Cells and ≦13 CFU/107 Cells. Further, the “Bioburden TSA-SB Aerobic” value in series [1] (setting [3]) is “≦2 CFU/107 Cells”; in series [1] (setting [4]), 3910 CFU/107 Cells and <11 CFU/107 Cells and <23 CFU/107 Cells and 2 CFU/107 Cells and ≦2 CFU/107 Cells and <49 CFU/107 Cells; in series [1] (0.8% Clorpactin, 2 min) it was 7100 CFU/107 Cells and <13 CFU/107 Cells. The “Bioburden TSA-SB Anaerobic” value was 3800 CFU/107 Cells and ≦2 CFU/107 Cells in series [1] (setting [3]); 3890 CFU/107 Cells and 343 CFU/107 Cells and <23 CFU/107 Cells and 294 CFU/107 Cells and ≦2 CFU/107 Cells and <49 CFU/107 Cells in series [1] (setting [4]); 8870 CFU/107 Cells and 1364 CFU/107 Cells in series [1] (0.8% Clorpactin, 2 min). In addition, the “% Reduction of bioburden TSA-SB Aerobic” value in series [1] (0.4% Clorpactin, 2 successive 2 min treatments, vs control of same tumor) is recorded as “(99%)”. In addition, the “two successive two minute treatments versus single treatment (in words)” value in series [1] (0.4% Clorpactin, fresh disinfectant each time) was “No advantage for two treatments was observed”. Further, in series [1] (0.8% Clorpactin, 2 min, vs control of same tumor), the “% Reduction of bioburden TSA-SB Anaerobic” value is “(92%)”. Moreover, the “effect on bioburden (in words)” value in series [1] (Clorpactin at 0.8% compared with 0.4%) is recorded as “no further reduction in bioburden was observed”. In addition, the “effect of disinfectant on bioburden (in words)” value in series [1] is given as “reduced the bioburden in the sample; also recorded: bioburden reductions to almost three orders of magnitude”.
